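Five concentrations, 48 hours, 96-well plates. GI50 marks 50% less growth. TGI denotes the concentration required for complete inhibition of growth.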
Experiments:
Assay in all cases: DTP human tumour cell line panel, 48 h
786-0 renal = test system: 786-0 renal
CCRF-CEM leukemia = test system: CCRF-CEM leukemia
HCT-15 colon = test system: HCT-15 colon
LOX IMVI melanoma = test system: LOX IMVI melanoma
NCI-H23 lung = test system: NCI-H23 lung
NCI-H460 lung = test system: NCI-H460 lung
OVCAR-3 ovarian = test system: OVCAR-3 ovarian
SK-OV-3 ovarian = test system: SK-OV-3 ovarian
SR leukemia = test system: SR leukemia
EKVX NSCLC = test system: EKVX NSCLC

CN=C1NC(=O)/C(=C/c2ccc3ncccc3c2)S1
GI50 (786-0 renal): 10.7 µM
TGI (786-0 renal): > 25 µM
GI50 (CCRF-CEM leukemia): 7.81 µM
TGI (CCRF-CEM leukemia): > 25 µM
GI50 (HCT-15 colon): 6.09 µM
TGI (HCT-15 colon): > 25 µM
GI50 (LOX IMVI melanoma): 6.74 µM
TGI (LOX IMVI melanoma): > 25 µM
GI50 (NCI-H23 lung): 8.38 µM
TGI (NCI-H23 lung): > 25 µM
GI50 (NCI-H460 lung): 7.79 µM
TGI (NCI-H460 lung): > 25 µM
GI50 (OVCAR-3 ovarian): 9.11 µM
TGI (OVCAR-3 ovarian): > 25 µM
GI50 (SK-OV-3 ovarian): 7.76 µM
TGI (SK-OV-3 ovarian): 24.8 µM
GI50 (SR leukemia): 2.14 µM
TGI (SR leukemia): 16.7 µM

Cn1cc(C2=C(c3ccc(OC[C@@H](O)CO)cc3)C(=O)NC2=O)c2ccccc21
GI50 (786-0 renal): > 25 µM
TGI (786-0 renal): > 25 µM
GI50 (CCRF-CEM leukemia): > 25 µM
TGI (CCRF-CEM leukemia): > 25 µM
GI50 (HCT-15 colon): > 25 µM
TGI (HCT-15 colon): > 25 µM
GI50 (LOX IMVI melanoma): > 25 µM
TGI (LOX IMVI melanoma): > 25 µM
GI50 (NCI-H23 lung): > 25 µM
TGI (NCI-H23 lung): > 25 µM
GI50 (NCI-H460 lung): > 25 µM
TGI (NCI-H460 lung): > 25 µM
GI50 (OVCAR-3 ovarian): > 25 µM
TGI (OVCAR-3 ovarian): > 25 µM
GI50 (SK-OV-3 ovarian): > 25 µM
TGI (SK-OV-3 ovarian): > 25 µM
GI50 (SR leukemia): > 25 µM
TGI (SR leukemia): > 25 µM

CCCCCCCCCCCCOC1C(CNCC2OC3OC(C)(C)OC3C2NC(=O)Nc2ccc(C(=O)OCC)cc2)OC2OC(C)(C)OC21 (stereo unspecified)
GI50 (786-0 renal): 3.29 µM
TGI (786-0 renal): 11.5 µM
GI50 (EKVX NSCLC): 6.08 µM
TGI (EKVX NSCLC): 18.9 µM
GI50 (HCT-15 colon): 2.46 µM
TGI (HCT-15 colon): 6.14 µM
GI50 (LOX IMVI melanoma): 1.99 µM
TGI (LOX IMVI melanoma): 3.92 µM
GI50 (NCI-H23 lung): 8.34 µM
TGI (NCI-H23 lung): 21.5 µM
GI50 (NCI-H460 lung): 2 µM
TGI (NCI-H460 lung): 3.87 µM
GI50 (OVCAR-3 ovarian): 3.41 µM
TGI (OVCAR-3 ovarian): 11.5 µM
GI50 (SK-OV-3 ovarian): 10.4 µM
TGI (SK-OV-3 ovarian): 23.3 µM

CNC(=O)c1cc(Oc2ccc3c(c2)sc2nc(-c4ccc(N)cc4)cn23)ccn1
GI50 (786-0 renal): 0.433 µM
TGI (786-0 renal): > 100 µM
GI50 (CCRF-CEM leukemia): 0.2 µM
TGI (CCRF-CEM leukemia): > 100 µM
GI50 (EKVX NSCLC): 0.458 µM
TGI (EKVX NSCLC): > 100 µM
GI50 (HCT-15 colon): 0.122 µM
TGI (HCT-15 colon): > 100 µM
GI50 (LOX IMVI melanoma): 0.904 µM
TGI (LOX IMVI melanoma): > 100 µM
GI50 (NCI-H23 lung): 0.491 µM
TGI (NCI-H23 lung): > 100 µM
GI50 (NCI-H460 lung): 0.289 µM
TGI (NCI-H460 lung): 20.6 µM
GI50 (OVCAR-3 ovarian): 0.198 µM
TGI (OVCAR-3 ovarian): 0.67 µM
GI50 (SK-OV-3 ovarian): 0.47 µM
TGI (SK-OV-3 ovarian): > 100 µM

COc1ccc(N=Cc2cc(OC)c(OC)c(OC)c2)cc1
TGI (786-0 renal): > 100 µM
TGI (CCRF-CEM leukemia): > 100 µM
TGI (EKVX NSCLC): > 100 µM
TGI (HCT-15 colon): > 100 µM
TGI (LOX IMVI melanoma): > 100 µM
TGI (NCI-H23 lung): > 100 µM
TGI (NCI-H460 lung): > 100 µM
GI50 (OVCAR-3 ovarian): > 100 µM
TGI (OVCAR-3 ovarian): > 100 µM
TGI (SK-OV-3 ovarian): > 100 µM

CCCCCCCCCCCCCCC1OC(=O)c2ccccc21 (stereo unspecified)
TGI (786-0 renal): > 100 µM
TGI (CCRF-CEM leukemia): > 100 µM
TGI (EKVX NSCLC): > 100 µM
TGI (LOX IMVI melanoma): > 100 µM
TGI (NCI-H23 lung): > 100 µM
TGI (NCI-H460 lung): > 100 µM
TGI (OVCAR-3 ovarian): > 100 µM
TGI (SK-OV-3 ovarian): > 100 µM
TGI (SR leukemia): > 100 µM

CC1=CCCC(OC(N)=O)C1 (stereo unspecified)
TGI (786-0 renal): > 100 µM
TGI (CCRF-CEM leukemia): > 100 µM
TGI (EKVX NSCLC): > 100 µM
TGI (HCT-15 colon): > 100 µM
TGI (LOX IMVI melanoma): > 100 µM
TGI (NCI-H23 lung): > 100 µM
TGI (NCI-H460 lung): > 100 µM
TGI (OVCAR-3 ovarian): > 100 µM
TGI (SK-OV-3 ovarian): > 100 µM

O=C(Nc1ccccc1[N+](=O)[O-])c1ccccc1
TGI (786-0 renal): > 100 µM
TGI (EKVX NSCLC): > 100 µM
TGI (HCT-15 colon): > 100 µM
TGI (LOX IMVI melanoma): > 100 µM
TGI (NCI-H23 lung): > 100 µM
TGI (NCI-H460 lung): > 100 µM
TGI (OVCAR-3 ovarian): > 100 µM
TGI (SK-OV-3 ovarian): > 100 µM

— PubChem BioAssay (NCI)
